Measurements published in patent publication US20040023922A1, “Lipids for modulating immune response” (priority 2000, published 2004).
Where “and” joins values, the source holds several entries; their conditions need not be identical. Equal entries are not always repeated. Where two headings read alike, the source gives them in different places.

Key:
mesenteric lymph nodes = assay type: in vivo, mice
Female Balb/c mice = assay: Adjuvanticity of lipids: serum anti-KLH IgA, IgG, IgM ELISA (Example 7); assay type: in vivo; settings: for Day 7 Results IgA, score as multiples of the control response / Day 7 Results IgG, score as multiples of the control response / Day 7 Results IgM, score as multiples of the control response: serum day 7 after booster; for Day 7 Results IgA, score as multiples of the control response: 5 μl lipid + 45 μl saline + 50 μl KLH (2 mg/ml), week 0 and week 2; for Day 7 Results IgA, score as multiples of the control response / Day 7 Results IgG, score as multiples of the control response / Day 7 Results IgM, score as multiples of the control response / Day 21 Results IgA, score as multiples of the control response / Day 21 Results IgG, score as multiples of the control response / Day 21 Results IgM, score as multiples of the control response: control KLH + Saline = 1; for Day 21 Results IgA, score as multiples of the control response / Day 21 Results IgG, score as multiples of the control response / Day 21 Results IgM, score as multiples of the control response: serum day 21 after booster; for Ranking Total: sum of the six IgA, IgG, IgM scores of day 7 and day 21, control KLH + Saline = 6
Procedure: The objective of this study was to investigate the adjuvanticity of 19 different lipids.
Female Balb/c mice, 6-8 weeks and weighing about 20-22 gms were used and maintained on a normal mouse diet throughout the study.
There were 22 groups of mice marked alphabetically from A-V. Group A (8 mice) was the negative control (KLH+Saline), Group B (8 mice) was the positive control (KLH+IFA). Groups C-V were the experimental groups containing 6 mice each. 100 μl of antigen preparation comprising of 5 μl lipid+45 μl saline+50 μl (2 mg/ml KLH) was administered to 20 groups of 6 mice each, on week 0 followed by a boost on week 2.
On day 7 and day 21 after the booster dose, the mice were tail bled, the serum separated, aliquoted and stored at 4° C.
The specific anti-KLH IgG and IgM antibody content of each individual serum sample was determined in an established ELISA assay and standardised against a positive control antiserum obtained by hyperimmunisation of mice with KLH (100 μg) in Freund's incomplete adjuvant. Plates were coated with KLH at 2 μg/ml and incubated with four twofold dilutions of samples (100 μl) at 37° C. for 2 hours. The initial dilution of serum samples was 1:50 for IgA assay and 1:100 for IgG and IgM assays. […] IgA and IgM were used at 1:1000 and IgG at 1:2000 for 2 hours at 37° C. The results were expressed as antibody units calculated from the standard curve obtained from pooled immune mouse serum given an arbitrary antibody value of 100,000 IgA units/ml and 1×10^6 IgG and IgM units/ml. The standard curve was diluted from 1:100 to 1:3200 for IgA, 1:4000 to 1:256,000 for IgG and 1:1000 to 1:32000 for IgM samples. The value for each sample dilution falling on standard curve was calculated and the mean taken as the value for the sample.
Results are given in the form of histograms (FIGS. 9 to 14), plotting the Ig response (units/ml) against the trial grouping. […] The number signifies multiples of the control response.

Q: With `CC/C=C\C/C=C\C/C=C\CCCCCCCC(=O)OCC(COC(=O)CCCCCCC/C=C\C/C=C\C/C=C\CC)OC(=O)CCCCCCC/C=C\C/C=C\C/C=C\CC` [Trilinolenin] as the molecule, how does the “Proliferative cellular response of mesenteric lymph nodes to KLH compared to control (FIG. 15)” value (mesenteric lymph nodes; 40 μg on SiO2 particles in 0.2 ml PBS per mouse per day intragastrically, days 1-3, KLH + cholera toxin days 7 and 14, killed day 21, control KLH+CT) read?
A: strong proliferative response

Q: How did the “Day 7 Results IgA, score as multiples of the control response” value (“Day 7 Results IgA, score as multiples” for short) (Female Balb/c mice) turn out when `CCCCCCCCCCCCCCCCCC(=O)OCC(COC(=O)CCCCCCCCCCCCC)OC(=O)CCCCCCCCCCCCCCCCC` (racemic) [DSM, 1,2 Distearloyl-3-myristoyl-rac-glycerol] was run?
A: 26

Q: What about the “Day 7 Results IgG, score as multiples of the control response” value (from here on “Day 7 Results IgG, score as multiples”) (Female Balb/c mice) of the same molecule?
A: 4

Q: What about the “Day 7 Results IgM, score as multiples of the control response” value (from here on “Day 7 Results IgM, score as multiples”) (Female Balb/c mice) of the same molecule?
A: 4

Q: And the “Day 21 Results IgA, score as multiples of the control response” value (from here on “Day 21 Results IgA, score as multiples”) (Female Balb/c mice)?
A: 3

Q: And the “Day 21 Results IgG, score as multiples of the control response” value (shortened to “Day 21 Results IgG, score as multiples”) (Female Balb/c mice)?
A: 5

Q: And the “Day 21 Results IgM, score as multiples of the control response” value (“Day 21 Results IgM, score as multiples” below) (Female Balb/c mice)?
A: 3

Q: And the “Ranking Total” value (Female Balb/c mice)?
A: 45

Q: `CCCCCCCCCCCCCCCC(=O)OCC(COC(=O)CCCCCCCCCCCCC)OC(=O)CCCCCCCCCCCCCCC` (racemic) [DPM, 1,2 Diplamitoyl-3-myristoyl-rac-glycerol] was tested. Which “Day 7 Results IgA, score as multiples” value (Female Balb/c mice) did it give?
A: 16

Q: What about the “Day 7 Results IgG, score as multiples” value (Female Balb/c mice) of the same molecule?
A: 3

Q: What about the “Day 7 Results IgM, score as multiples” value (Female Balb/c mice) of the same molecule?
A: 1

Q: What about the “Day 21 Results IgA, score as multiples” value (Female Balb/c mice) of the same molecule?
A: 2

Q: What about the “Day 21 Results IgG, score as multiples” value (Female Balb/c mice) of the same molecule?
A: 7

Q: What about the “Day 21 Results IgM, score as multiples” value (Female Balb/c mice) of the same molecule?
A: 2

Q: What about the “Ranking Total” value (Female Balb/c mice) of the same molecule?
A: 31

Q: For `CCCCCCCCCCCCC/C=C/[C@@H](O)[C@H](CO)NC(=O)CCCCCCCCCCCCCCC` [PS, N-Palmitoyl-d-sphigosine], which “Day 7 Results IgA, score as multiples” value (Female Balb/c mice) is on record?
A: 35

Q: And the “Day 7 Results IgG, score as multiples” value (Female Balb/c mice)?
A: 3

Q: And the “Day 7 Results IgM, score as multiples” value (Female Balb/c mice)?
A: 2

Q: And the “Day 21 Results IgA, score as multiples” value (Female Balb/c mice)?
A: 4

Q: And the “Day 21 Results IgG, score as multiples” value (Female Balb/c mice)?
A: 19

Q: What about the “Day 21 Results IgM, score as multiples” value (Female Balb/c mice) of the same molecule?
A: 1

Q: What about the “Ranking Total” value (Female Balb/c mice) of the same molecule?
A: 64

Q: How did the “Proliferative cellular response of mesenteric lymph nodes to KLH compared to control (FIG. 15)” value (mesenteric lymph nodes; mouse, in vivo) turn out when `CCCCCCCC/C=C\CCCCCCCC(=O)OC[C@H](COP(=O)([O-])OCC[N+](C)(C)C)OC(=O)CCCCCCC/C=C\CCCCCCCC` [Phosphatidycholine, dioleoyl, Phosphatidylcholine, dioleoyl] was run?
A: strong proliferative response

Q: Which results are given for `CCCCCCCCCCCCCCCC(=O)OCC(COC(=O)CCCCCCCCCCCCCCC)OC(=O)CCCCCCCCCCCCCCC` [TPaL, Tripalmitin]?
A: Day 7 Results IgA, score as multiples of the control response (Female Balb/c mice): 3; Day 7 Results IgG, score as multiples of the control response (Female Balb/c mice): 4; Day 7 Results IgM, score as multiples of the control response (Female Balb/c mice): 1; Day 21 Results IgA, score as multiples of the control response (Female Balb/c mice): 1; Day 21 Results IgG, score as multiples of the control response (Female Balb/c mice): 6; Day 21 Results IgM, score as multiples of the control response (Female Balb/c mice): 1; Ranking Total (Female Balb/c mice): 16; Ranking Total (Female Balb/c mice; listed as TpaL): 15

Q: Which results are given for `CCCCCCCCCCCCCC(=O)OCC(COC(=O)CCCCCCCCCCCCC)OC(=O)CCCCCCCCCCCCC` [TM, Trymyristin]?
A: Day 7 Results IgA, score as multiples of the control response (Female Balb/c mice): 6; Day 7 Results IgG, score as multiples of the control response (Female Balb/c mice): 4; Day 7 Results IgM, score as multiples of the control response (Female Balb/c mice): 1; Day 21 Results IgA, score as multiples of the control response (Female Balb/c mice): 1; Day 21 Results IgG, score as multiples of the control response (Female Balb/c mice): 3; Day 21 Results IgM, score as multiples of the control response (Female Balb/c mice): 1; Ranking Total (Female Balb/c mice): 17 and 16
